Laboratory results taken from patent US12653862B2, “Anti-senescence compounds and uses thereof” (CLEARA BIOTECH B.V., priority 2020, dated 2026).
“Also recorded” adds a separate entry of the source. Like-named read-outs stand apart in the source and are kept apart here.

Legend:
[1] = test system: colon cancer 3D organoids; test: Colon cancer 3D organoids, live/dead assay, with chemotherapy; format: cell-based; conditions: for cell death vs cell cycle arrest: colon cancer 3D organoids
Description: (§1) Organoids were grown at 37° C. and 5% CO2 in a humidified incubator. All organoids were cultured in matrigel (Corning) droplets in advanced DMEM/F12 (Lonza) supplemented with 1% glutamax, 1% Penicillin/Streptomycin, 1% (10 mM) HEPES, 10% Noggin conditioned medium, 2% B-27 (50×; (Thermo/Life Technologies), N-acetylcysteine ((Sigma-Aldrich, 1.25 mM)), A83-01 (Tocris, 500 nM) and SB203580 (Invitrogen/Life Technologies, 3 μM). To perform viability and apoptosis assays, the organoids were passaged through resuspension in ice-cold medium, followed by centrifugation in 15 ml tubes at 4° C. The resulting pellet was trypsinized for 5 minutes at 37° C. to obtain single cells and subsequently washed twice with advanced DMEM/F12 media. These cells were then resuspended in Matrigel and plated in 96-well plates in 5 ul droplets. 100 ul fresh medium was added to the wells 15 minutes later. Peptide and chemotherapy treatment was added to the organoids 2 days after plating.
(§2) A Live/dead assay was performed on both larger organoids 3 days after peptide and/or chemotherapy treatment, or on organoids that were treated as single cells and allowed to grow out for 2 weeks before the assay was performed. To perform the assay, Calcein-AM (1:1000) and Propidium Iodide (PI; 1:100) were added to the medium of the organoids to detect living and dead cells respectively. The organoids were then imaged on a Zeiss Cell Observer microscope and the signal was quantified using FIJI.

[2] = Peptide stability in solution; format: physicochemical
Description: Both peptides were dissolved in H2O and kept at room temperature. The peptide concentration was determined for the indicated time points.

[3] = test system: IMR90 lung fibroblasts; test: Caspase-3/7 apoptosis assay in senescent vs healthy control IMR90 cells; format: cell-based, Human; conditions: for apoptosis induction by Caspase-3/7 activation, senescent vs healthy control cells: IMR90, FOXO4-DRI as control
Description: (§3) Human IMR90, WI38 and RPE cells were grown in Dulbecco's Modified Eagle's Medium (DMEM; Lonza) containing 10% FCS and 1% pen/strep at 37° C. with 3.0% 02 and 5.0% CO2. To induce senescence, cells were irradiated with 10Gy ionizing radiation (Gammacell 1000) and were left for a minimum of 10 days to become senescent.
(§4) To perform viability and apoptosis assays, cells were split into 96-well plates and treated with peptides 2 days later. Non-senescent and cancer cells were plated 1500 cells/well, while senescent cells were plated at 8.000 cells/well.
(§5) For a caspase assay, Caspase-Glo 3/7 assay reagent (Promega) was added to the medium 2 days after treatment. The plates were then incubated in aluminium foil at room temperature on a shaker for 1 hour and subsequently measured with a Luminescence Plate Reader.

[4] = target: T1, TP53-TAD2 (Homo sapiens, UniProt P04637); test: Fluorescence polarization with FITC-labeled TP53-TAD2; format: binding; conditions: FITC-labeled TP53-TAD2 (250 nM), increasing concentrations of peptides
T1 construct: amino acid 37 to 57 (p53-TAD2)
T1 sequence (P04637 37-57 limits assumed): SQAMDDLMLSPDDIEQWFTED
Description: 116 μl of a solution of the specific peptides (ranging from 1 to 100 μM) were prepared. […] 35 μl were then transferred in each well of the 384-well plate. Measurements were performed in triplicates.
Data was acquired on a ClarioStar Plus platereader. Endpoint measurement with 200 flashes per well were performed. An excitation filter with 482 nm wavelength and emission filter with 530 nm were used and gain adjustment as well as focal height adjustment were performed for each measurement. Fluorescence intensity, parallel fluorescence polarization and perpendicular fluorescence polarization were recorded.
Data analysis was performed using MARS Version 3.4 (BMG), Microsoft Excel and GraphPad Prism Version 8.

[5] = test system: Caspase-3/7 activation; test: Live imaging of Caspase-3/7 activation over time; format: cell-based
Description: Organoids and IMR90 cells were grown in 96-well cell culture plates and either the 488 IncuCyte Caspase 3/7 Reagent For Apoptosis (Sartorius) or the IncuCyte Caspase 3/7 red apoptosis assay reagent (Essen Bioscience) was added to the wells. Peptides were added directly before the plate was transferred to a Zeiss Cell Observer microscope that contains a Heat and CO2-controlled compartment. Subsequently, live imaging was started where a picture was recorded every 2 hours for 60 hours. Images were processed using Zen imaging software (Zeiss).

[6] = test system: GBM8 glioblastoma cells; test: Caspase-3/7 activation (apoptosis) in GBM8 glioblastoma cells; format: cell-based
Description: (§6) GBM8 cells were cultured in Dulbecco's Modified Eagle's Medium/Nutrient Mixture F-12 (DMEM F-12), containing high glucose, L-Glutamine, no phenol red, supplemented with 1% (10 mM) HEPES, 1% Penicillin/Streptomycin, 2% B-27 (50×), 5 μg/ml Heparin sodium salt from porcine intestinal mucosa Grade I-A, 20 ng/ml recombinant human Fibroblast Growth Factor (rhFGF) and 20 ng/ml recombinant human Epidermal Growth Factor (rhEGF). These cells were cultured in plastic ware coated with Matrigel Matrix (20× diluted in DMEM F-12) at 37° C., 5% CO2 and 3% O2 in a humified incubator.
as §4, §5

[7] = test system: GBM8 glioblastoma cells; test: Loss of LDH (cell death) in GBM8 glioblastoma cells; format: cell-based; conditions: GBM8, vs FOXO4-DRI
Description: as §6, §4

[8] = test system: WI38 cells; test: Apoptosis in healthy WI38 cells; format: cell-based, Human; conditions: FIG. 9C
Description: as §3, §4, §5

[9] = test system: colon carcinoma 3D organoid cultures; test: Colon carcinoma 3D organoid cultures; format: cell-based
Description: as §1

[10] = test system: normal wildtype colon organoids; test: Normal wildtype colon organoids, with or without APC depletion; format: cell-based
Description: as §1

[11] = target: T2, full-length TP53 (Homo sapiens, UniProt P04637); test: Streptavidin bead pull-down of endogenous TP53 from HEK293T lysates with biotinylated peptide; format: binding; conditions: streptavidin beads, HEK293T cell lysates, vs FOXO4-DRI
T2 construct: endogenous TP53 from lysates ofHEK293T cells; endogenous in cells; host or cells: HEK293T
T2 sequence (P04637 whole entry): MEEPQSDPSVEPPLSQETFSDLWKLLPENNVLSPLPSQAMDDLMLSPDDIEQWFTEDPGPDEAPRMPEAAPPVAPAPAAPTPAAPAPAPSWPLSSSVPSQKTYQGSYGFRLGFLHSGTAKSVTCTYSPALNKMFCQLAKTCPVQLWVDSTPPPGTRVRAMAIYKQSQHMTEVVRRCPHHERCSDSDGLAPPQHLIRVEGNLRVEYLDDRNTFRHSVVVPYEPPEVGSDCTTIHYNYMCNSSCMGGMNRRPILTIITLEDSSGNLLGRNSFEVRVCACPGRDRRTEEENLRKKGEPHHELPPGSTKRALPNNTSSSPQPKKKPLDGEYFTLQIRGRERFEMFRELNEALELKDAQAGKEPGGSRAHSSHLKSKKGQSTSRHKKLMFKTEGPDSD

[12] = test system: 3D colon organoids; test: Outgrowth of 3D colon organoids after peptide exposure; format: cell-based
Description: as §1
as §2, with “To perform the assay, Calcein-AM (1:1000) and Propidium Iodide (PI; 1:100) were added to the medium of the organoids to detect living and dead cells respectively.” left out

[13] = test system: MCF10 cells; test: Caspase assay in senescent human breast epithelial MCF10 cells; format: cell-based; conditions: 2 days, vs FOXO4-DRI/CL03001
Description: as §5

[14] = test system: WT colon and tumor progression (TPO) organoids; test: Cell viability of WT colon and tumor progression (TPO) organoids; format: cell-based; conditions: increasing concentrations, measured 5 days later
Description: as §1

O=c1[nH]cc(F)c(=O)[nH]1 [SFU, 5-fluorouracil, reference compound]
cell death vs cell cycle arrest [1]: merely causes a cell cycle arrest

AKIEAAILDAFSQNBRKRRRRQRRKKRG [CL05114]
stability in solution [2]: superior stability

RKKASSKIAAAILDAFSQNAWANRRSSCKRP (listed as Homo sapiens) [CL04022]
apoptosis induction by Caspase-3/7 activation, senescent vs healthy control cells [3]: still better than the control
binding of TP53-TAD by fluorescence polarization [4]: more potent in binding TP53-TAD than the reference compound
stability, peptide concentration over time ([2]; dissolved in H2O, room temperature, multiple days): more stable than CL04009
stability in solution ([2]; in solution): improved stability in solution
full Caspase-3/7 activation complete [5]: 60 h
start of Caspase-3/7 activation after administration [5]: 24 h
Caspase3/-7 activation (apoptosis), potency ([6]; GBM8, vs FOXO4-DRI): more potent than FOXO4-DRI
apoptosis induction ([6]; GBM8 glioblastoma cells, FIG. 9C): induce apoptosis in GBM8 glioblastoma cells
loss of LDH (cell death), potency [7]: more potent than FOXO4-DRI
apoptosis induction [8]: not in healthy Wi38 cells
efficacy against organoid cultures ([9]; one Microsatellite stable (MSS) line): ineffective
selectivity, patient-derived colorectal cancers vs healthy control samples ([9]; patient-derived samples): selective
efficacy against organoid cultures ([9]; two microsatellite-unstable (MSI) lines): effective
potency against organoids ([10]; normal wildtype colon organoids): less potency
efficacy against organoids ([10]; organoids depleted for APC): effective
efficacy in organoids that survived chemotherapy ([1]; after 5′FluoroUracil or Oxaliplatin): more effective
cell death vs cell cycle arrest [1]: induces cell death, not merely causes a cell cycle arrest

RKKASSKIAAAILDAFSQNAWANRRSSCKRPPPRRRQRRKKRA (listed as Homo sapiens) [SEQ ID NO: 23]
stability in solution [2]: improved stability in solution

RKKASSKIAAAILDAFSQNGWANRRSSCKRP (listed as Homo sapiens) [CL04009]
pull-down of endogenous TP53 (binding to full-length TP53) [11]: potent in binding recombinant TP53-TAD2 and full-length TP53
apoptosis induction by Caspase-3/7 activation, senescent vs healthy control cells [3]: superior selectivity to induce apoptosis by Caspase-3/7 activation in senescent, but not healthy control IMR90 lung fibroblasts; also recorded: very potent and selective capacity to induce apoptosis in senescent
effective concentration (potency) ([3]; IMR90, compared with FOXO4-DRI): effective at a lower concentration
tumor outgrowth of organoids ([12]; 14 d after exposure): no more tumor outgrowth
cytotoxic vs cytostatic effect ([12]; colon organoids): cytotoxic on colon organoids and not just cytostatic
apoptosis induction (caspase assay), potency [13]: more potent in inducing apoptosis

RKKASSKIAAAILDAFSQNWRRKR (listed as Homo sapiens) [CL04088]
apoptosis induction by Caspase-3/7 activation, senescent vs healthy control cells [3]: superior to peptide CL04022

RKKASSKIEAAILDAFSQNWRRKRPPRRRQRRKKRG (listed as Homo sapiens) [CL04124]
cell viability, sensitivity of organoids with colorectal cancer associated mutations [14]: sensitizes to FOXO4-based peptides, dependent on p53
